Test results published in the supplement of paper PMC10307832.

What was measured:
Experiment in all cases: relative viability (nuclei count vs DMSO), 5 days (fraction); higher = more cells survive
Vemurafenib + Foretinib = compound: CCCS(=O)(=O)Nc1ccc(F)c(C(=O)c2c[nH]c3ncc(-c4ccc(Cl)cc4)cc23)c1F [Vemurafenib] + COc1cc2c(Oc3ccc(NC(=O)C4(C(=O)Nc5ccc(F)cc5)CC4)cc3F)ccnc2cc1OCCCN1CCOCC1 [Foretinib] (partner 0.25 µM)
Outline: (§1)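 Medians of duplicate plates are given as relative viability. That measure is the nuclei count in treated wells divided by the count in vehicle wells. Counts were taken on 4× images of lung cancer cell lines in 1536-well plates, 5 days after pin-tool dosing the day after seeding with one drug alone or a fixed anchor-drug dose plus five library-drug doses (not always all listed) in √10 steps.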

Vemurafenib + Lapatinib = compound: CCCS(=O)(=O)Nc1ccc(F)c(C(=O)c2c[nH]c3ncc(-c4ccc(Cl)cc4)cc23)c1F [Vemurafenib] + CS(=O)(=O)CCNCc1ccc(-c2ccc3ncnc(Nc4ccc(OCc5cccc(F)c5)c(Cl)c4)c3c2)o1 [Lapatinib] (partner 2 µM)
Outline: as §1

Alpelisib + Navitoclax = compound: Cc1nc(NC(=O)N2CCC[C@H]2C(N)=O)sc1-c1ccnc(C(C)(C)C(F)(F)F)c1 [Alpelisib] + CC1(C)CCC(c2ccc(Cl)cc2)=C(CN2CCN(c3ccc(C(=O)NS(=O)(=O)c4ccc(N[C@H](CCN5CCOCC5)CSc5ccccc5)c(S(=O)(=O)C(F)(F)F)c4)cc3)CC2)C1 [Navitoclax] (partner 0.5 µM)
Outline: as §1

Alpelisib + Luminespib = compound: Cc1nc(NC(=O)N2CCC[C@H]2C(N)=O)sc1-c1ccnc(C(C)(C)C(F)(F)F)c1 [Alpelisib] + CCNC(=O)c1noc(-c2cc(C(C)C)c(O)cc2O)c1-c1ccc(CN2CCOCC2)cc1 [Luminespib] (partner 0.01 µM)
Outline: as §1

Cell Line: UMC-11
- relative viability (Vemurafenib + Foretinib; first compound 0.03162 µM): 1.02
- relative viability (Vemurafenib + Foretinib; first compound 0.1 µM): 1
- relative viability (Vemurafenib + Foretinib; first compound 0.3162 µM): 1.15
- relative viability (Vemurafenib + Foretinib; first compound 1 µM): 0.923
- relative viability (Vemurafenib + Lapatinib; first compound 0.03162 µM): 0.698
- relative viability (Vemurafenib + Lapatinib; first compound 0.1 µM): 0.956
- relative viability (Vemurafenib + Lapatinib; first compound 0.3162 µM): 0.73
- relative viability (Vemurafenib + Lapatinib; first compound 1 µM): 0.625
- relative viability (Alpelisib + Navitoclax; first compound 0.04 µM): 0.319
- relative viability (Alpelisib + Navitoclax; first compound 0.1265 µM): 0.341
- relative viability (Alpelisib + Navitoclax; first compound 0.4 µM): 0.336
- relative viability (Alpelisib + Navitoclax; first compound 1.265 µM): 0.325
- relative viability (Alpelisib + Navitoclax; first compound 4 µM): 0.273
- relative viability (Alpelisib + Luminespib; first compound 0.04 µM): 1.04
- relative viability (Alpelisib + Luminespib; first compound 0.1265 µM): 1.05
- relative viability (Alpelisib + Luminespib; first compound 0.4 µM): 1.06
- relative viability (Alpelisib + Luminespib; first compound 1.265 µM): 0.766
- relative viability (Alpelisib + Luminespib; first compound 4 µM): 0.729
